Source: publication PMC10892818, “An Antiherpesviral Host-Directed Strategy Based on CDK7 Covalently Binding Drugs: Target-Selective, Picomolar-Dose, Cross-Virus Reactivity” (Pharmaceutics, 2024)
Like-named read-outs stand apart in the source and are kept apart here.

Legend:
HCMV UL97-C480F [1] = assay: HCMV reporter-based antiviral assay, drug-resistant mutant; type: cell-based, human cytomegalovirus; settings: Human betaherpesvirus 5, read-out: Measured EC50 ref. drugs UL97-C480F
Experimental: (§1) For the infection experiments, stocks of the following recombinant, reporter protein-expressing viruses (GFP or YFP (i.e., green or yellow fluorescent protein, respectively)) were propagated (in permissive cells), determined in their infectious titers performing the respective reporter assays, stored by aliquots at −80 °C, and used for the assessment of antiviral drug activities: human cytomegalovirus HCMV AD169-GFP (HFFs); murine cytomegalovirus MCMV C3X-GFP (MEFs); guinea pig cytomegalovirus GPCMV v403-GFP (GPEFs); human herpesvirus type 6A HHV-6A U1102-GFP (J-Jhan); herpes simplex virus type 1 HSV-1 166v VP22-GFP (HFFs); varicella zoster virus VZV Oka-GFP (HFFs); Epstein-Barr virus EBV Akata-GFP (Akata-BX1-GFP carrier cells; kindly provided by Lindsey Hutt-Fletcher and Rona Scott, Dept. Microbiol. Immunol., LSUHSC Univ., Shreveport, LA, USA); and Kaposi’s sarcoma-associated herpesvirus KSHV rKSHV.219-GFP/RFP (in iSLK.219 carrier cells).
(§2) For HCMV AD169-GFP infection, the replication assay was based on a seeding of 225,000 HFFs or 13,500 HFFs in 12 well or 96 well plates, respectively, which were then inoculated with HCMV AD169-GFP [55] at an MOI of 0.25 GFP-FU/mL/7 d for a 90 min period of inoculum–cell adsorption, followed by a medium refreshment including the immediate addition of antiviral compounds. At 7 d p.i., the infected HFFs were either directly fixed with 10% formalin for 20 min at 4 °C (when used for infection in the 96 well format) or lysed and transferred to 96 well plates (when used for infection in the 12 well format) so that the reporter of viral replication could be quantified by GFP fluorometry using a Perkin Elmer Victor X4 Multimode Plate Reader (Perkin Elmer, Waltham, MA, USA).
(§3) Due to the fact that the HCMV-encoded protein kinase pUL97 represents a functional and structural ortholog of the host CDKs (vCDK/pUL97), the viral mutants of ORF-UL97 were assessed for sensitivity against CDK7 inhibitors.

HCMV UL97-C592G [2] = assay: as above; type: cell-based, human cytomegalovirus; settings: Human betaherpesvirus 5, read-out: Measured EC50 ref. drugs UL97-C592G
Experimental: as §1, §2, §3

HCMV UL97-C603W [3] = assay: as above; type: cell-based, human cytomegalovirus; settings: Human betaherpesvirus 5, read-out: Measured EC50 ref. drugs UL97-C603W
Experimental: as §1, §2, §3

HCMV UL97-F342S [4] = assay: as above; type: cell-based, human cytomegalovirus; settings: Human betaherpesvirus 5, read-out: Measured EC50 ref. drugs UL97-F342S
Experimental: as §1, §2, §3

HCMV UL97-H411Y [5] = assay: as above; type: cell-based, human cytomegalovirus; settings: Human betaherpesvirus 5, read-out: Measured EC50 ref. drugs UL97-H411Y
Experimental: as §1, §2, §3

HCMV UL97-H469V = assay: as above; type: cell-based, human cytomegalovirus; settings: Human betaherpesvirus 5, read-out: Measured EC50 ref. drugs UL97-H469V
Experimental: as §1, §2, §3

HCMV UL97-H520Q [6] = assay: as above; type: cell-based, human cytomegalovirus; settings: Human betaherpesvirus 5, read-out: Measured EC50 ref. drugs UL97-H520Q
Experimental: as §1, §2, §3

HCMV UL97-L397R = assay: as above; type: cell-based, human cytomegalovirus; settings: Human betaherpesvirus 5, read-out: Measured EC50 ref. drugs UL97-L397R
Experimental: as §1, §2, §3

HCMV UL97-M460I [7] = assay: as above; type: cell-based, human cytomegalovirus; settings: Human betaherpesvirus 5, AD169, read-out: Measured EC50 ref. drugs UL97-M460I
Experimental: as §1, §2, §3

HCMV UL97-T409M [8] = assay: as above; type: cell-based, human cytomegalovirus; settings: Human betaherpesvirus 5, read-out: Measured EC50 ref. drugs UL97-T409M
Experimental: as §1, §2, §3

HCMV UL97-M460I [9] = tested on: HCMV UL97-M460I; set-up: method as in PMID 31940472; key: R-high, high-level drug resistance; R-int, intermediate-level drug resistance; R-low, low-level drug resistance; S, drug sensitivity; settings: cited from earlier work
HCMV UL97-T409M [10] = tested on: HCMV UL97-T409M; set-up: method as in PMID 31940472; key: R-high, high-level drug resistance; R-int, intermediate-level drug resistance; R-low, low-level drug resistance; S, drug sensitivity; settings: cited from earlier work
HCMV UL97-H411Y [11] = tested on: HCMV UL97-H411Y; set-up: method as in PMID 31940472; key: R-high, high-level drug resistance; R-int, intermediate-level drug resistance; R-low, low-level drug resistance; S, drug sensitivity; settings: cited from earlier work
HCMV UL97-C480F [12] = tested on: HCMV UL97-C480F; set-up: method as in PMID 31940472; key: R-high, high-level drug resistance; R-int, intermediate-level drug resistance; R-low, low-level drug resistance; S, drug sensitivity; settings: cited from earlier work
HCMV UL97-C592G [13] = tested on: HCMV UL97-C592G; set-up: method as in PMID 31940472; key: R-high, high-level drug resistance; R-int, intermediate-level drug resistance; R-low, low-level drug resistance; S, drug sensitivity; settings: cited from earlier work
HCMV UL97-F342S [14] = tested on: HCMV UL97-F342S; set-up: method as in PMID 31940472; key: R-high, high-level drug resistance; R-int, intermediate-level drug resistance; R-low, low-level drug resistance; S, drug sensitivity; settings: (for F342Y); cited from earlier work
HCMV UL97-H520Q [15] = tested on: HCMV UL97-H520Q; set-up: method as in PMID 31940472; key: R-high, high-level drug resistance; R-int, intermediate-level drug resistance; R-low, low-level drug resistance; S, drug sensitivity; settings: cited from earlier work
HCMV UL97-C603W [16] = tested on: HCMV UL97-C603W; set-up: method as in PMID 31940472; key: R-high, high-level drug resistance; R-int, intermediate-level drug resistance; R-low, low-level drug resistance; S, drug sensitivity; settings: cited from earlier work
[17] = Neutral Red uptake assay (NRA), uninfected HFFs; type: cell-based; settings: human, read-out: CC50 (VZV-GFP system)
Experimental: The cytotoxic level of the compounds was determined by the use of an established quantitation of cell viability (i.e., Neutral Red uptake assay) performed after 3–7 d of compound incubation on uninfected cells (according to the respective duration of the antiviral reporter-based replication assay performed in parallel) as described earlier in [44].

VZV Oka-GFP = assay: microbe, parasite or virus in culture; type: cell-based, varicella zoster virus; settings: for EC50: Human alphaherpesvirus 3, 96 h
Source text: (§4) The virus recombinants VZV Oka-GFP and rKSHV.219-GFP/RFP were used for the infection of HFFs (virus stock VZV Oka-GFP applied as a cell-bound inoculum as described before) or were continuously passaged in iSLK.219 carrier cells, respectively (Figure 1). The conditions of the GFP/RFP-based assays were adapted to both the 96 well (Figure 1A,B) and 12 well formats, and details including the assessment of antiviral reference drugs are given (Figure 1C,D).
(§5) The virus recombinants VZV Oka-GFP and rKSHV.219-GFP/RFP were used for the infection of HFFs (VZV) or were continuously passaged in iSLK.219 carrier cells (KSHV), respectively, and cell viability was determined by NRA performed with uninfected HFFs or uninduced iSLK.219 cells, respectively. (A,B) Schematic depiction of the assay systems performed in a 96 well plate format. […] For the VZV-GFP system, virus stock VZV Oka-GFP was applied as a cell-bound infectious inoculum. After a 90 min period of inoculum adsorption to the cell surfaces, antiviral compounds were added to the culture media at serial dilutions (DMSO served as a solvent control for drug treatment of infected cells, while mock-infected cells served as a negative control). For the KSHV-GFP/RFP system, iSLK.219 cell lytic replication of KSHV (RFP reporter signal) was induced by the addition of 0.05 or 0.5 µg/mL doxycycline (dox) to the culture media. Cultivated dox-induced iSLK.219 cells were treated with antiviral compounds added at serial dilutions (DMSO served as a positive infection solvent control, while dox-untreated mock cells served as a negative control). HFFs or iSLK.219 cells were harvested at 4 d p.i. or 1 d after treatment, respectively, fixed by a 10 min incubation with 10% formalin, washed with PBS, and used for quantitation of the GFP or RFP reporter signal by PicoMD counting (ImageXpress® Pico device, Molecular Devices LLC, San Jose, CA, USA), with data evaluation using CellReporterXpress® software (version 2.9.3.1183, Molecular Devices LLC) as described earlier in [63]. (C) The antiviral activity of the reference drugs was determined with the VZV-GFP system in the 96 well format. EC50 values refer to measurements in quadruplicate, and the mean values ± SD of two experimental replicates are given. (D) The antiviral activity of the reference drugs was determined with the KSHV-GFP/RFP system in the 96 well format. EC50 values refer to measurements in triplicate, and the mean values ± SD are given for each of the two depicted experimental replicates.

rKSHV.219-GFP/RFP = assay: KSHV-GFP/RFP reporter assay in iSLK.219 cells; type: cell-based, Kaposi’s sarcoma-associated herpesvirus
Source text: as §4, §5

[18] = Neutral Red uptake assay (NRA), iSLK.219 cells; type: cell-based; settings: human, read-out: CC50 (KSHV-GFP/RFP system)
Experimental: as §5

Compound `CC(C)Nc1nc2cc(Cl)c(Cl)cc2n1[C@H]1O[C@@H](CO)[C@H](O)[C@@H]1O` [MBV, maribavir] has an EC50 (HCMV UL97-C480F [1]) greater than 30 µM, an EC50 (HCMV UL97-C592G [2]) of 0.77 µM and an EC50 (HCMV UL97-C603W [3]) of 1.53 µM. It also gave an EC50 (HCMV UL97-F342S [4]) of 20.3 µM, an EC50 (HCMV UL97-H411Y [5]) of 21 µM and an EC50 (HCMV UL97-H469V) of 0.62 µM. For the same compound, the EC50 (HCMV UL97-H520Q [6]) was 0.04 µM, the EC50 (HCMV UL97-L397R) was 63.9 µM and the EC50 (HCMV UL97-M460I [7]) was 0.01 µM. The EC50 (HCMV UL97-T409M [8]) was greater than 30 µM, the “Reported phenotype UL97-M460I” value (HCMV UL97-M460I [9]) was “R-low” and the “Reported phenotype UL97-T409M” value (HCMV UL97-T409M [10]) was “R-high”. For the same compound, the “Reported phenotype UL97-H411Y” value (HCMV UL97-H411Y [11]) was “R-high”, the “Reported phenotype UL97-C480F” value (HCMV UL97-C480F [12]) was “R-high” and the “Reported phenotype UL97-C592G” value (HCMV UL97-C592G [13]) was “S”. The “Reported phenotype UL97-F342S” value (HCMV UL97-F342S [14]) was “R-int”, the “Reported phenotype UL97-H520Q” value (HCMV UL97-H520Q [15]) was “S” and the “Reported phenotype UL97-C603W” value (HCMV UL97-C603W [16]) was “R-int”.
Work on `Nc1nc2c(ncn2COCCO)c(=O)[nH]1` [aciclovir] yielded a CC50 [17] greater than 100 µM.
With `CCCCCCCCCCCCCCCCOCCCOP(=O)(O)CO[C@H](CO)Cn1ccc(N)nc1=O` [brincidofovir] the CC50 [17] was greater than 10 µM, the “SI (VZV-GFP system)” value (VZV Oka-GFP; 96 well format) was greater than 143 and the EC50 (VZV Oka-GFP; read-out: VZV EC50 (first experimental replicate)) was 0.07 ± 0.04 µM. The EC50 (VZV Oka-GFP; read-out: VZV EC50 (second experimental replicate)) was 0.06 ± 0.03 µM, the “SI (KSHV-GFP/RFP system)” value (rKSHV.219-GFP/RFP; 0.05 μg/mL dox) was 126 and the “SI (KSHV-GFP/RFP system)” value (rKSHV.219-GFP/RFP; 0.5 μg/mL dox) was 43. The EC50 (rKSHV.219-GFP/RFP; Human gammaherpesvirus 8, read-out: KSHV EC50, iSLK.219, 96 well, induced with 0.5 μg/mL dox) was 0.7 µM, the CC50 ([18]; marked 0.05 μg/mL dox) was 23.8 ± 2.9 µM and the CC50 ([18]; marked 0.5 μg/mL dox) was 28.2 µM.
